Results published in patent US20160220567A1, “COMPOSITION FOR TREATING OR PREVENTING BONE DISEASES, COMPRISING HALOFUGINONE AS ACTIVE INGREDIENT” (THE CATHOLIC UNIVERSITY OF KOREA INDUSTRY-ACADEMIC …, priority 2013, published 2016).

How the values were obtained:
[1] = test system: murine bone marrow cells differentiating into osteoclasts; experiment: Murine bone marrow cell osteoclast differentiation (M-CSF, RANKL): TRAP staining and real-time PCR; assay type: cell-based, mouse; conditions: 5 days
Experimental: For test animals, 6 to 7-week old male DBA-1 mice were used. […] Bone marrow cells were isolated from the tibia and the femur of mice, and the RBC of the isolated bone marrow cells were lysed, inoculated into a 24-well plate after diluting in 10% Minimum α-MEM to a concentration of 2 ? 10^5 cells/well, and cultured for 12 hours. The adherent cells were removed, stimulated with a macrophage-colony stimulating factor (M-CSF) and cultured for 3 days, and treated with M-CSF (10 ng/mL), receptor activator of NF-κB ligand (RANKL; 50 ng/mL), and halofuginone and cultured for 2 days. The medium was replaced in 2 days, retreated in the same manner, and cultured for 2 days.
(§1) Murine bone marrow cells were differentiated for 5 days by stimulating with M-CSF, RANKL, and halofuginone and subjected to TRAP staining according to the method described in Example <1-8> to confirm the number of TRAP positive cells. Additionally, the expression of c-Fos, JunB, and Jpd2 in the bone marrow cells were confirmed by real-time PCR according to the method described in Example <1-6>.

[2] = test system: mouse model with collagen-induced arthritis; experiment: Arthritis index score in mouse model with collagen-induced arthritis (CIA); assay type: in vivo
Experimental: (§2) For the construction of a mouse model with collagen-induced arthritis (hereinafter, referred to as “CIA”), a 6-week old male DBA/1J mouse was subjected to primary immunization by intradermal injection after mixing the bovine type II collagen (hereinafter, referred to as “CII”) and complete Freud's adjuvant (CFA) in an amount of 100 μL, respectively. After a week thereafter, halofuginone was injected intraperitoneally at 3 day intervals at a concentration of 100 μg/kg and 500 μg/kg, respectively (9 weeks).
To examine the therapeutic effect of treating halofuginone of the present invention on arthritis, the clinical score of the joint inflammation of the mouse prepared in Example <1-1> (the mouse with arthritis injected with halofuginone) was measured while observing the mouse. The group treated with a solution in which DMSO was diluted in saline was used as the control group.
The clinical score was evaluated using a clinical score system, in which the respective score for swelling and redness on toes or caudal regions was determined by observing daily the degree of the progress of the joint inflammation on the arthritis lesion of the mouse by the naked eye.

[3] = test system: anti-CII-specific IgG, IgG1, and IgG2a; experiment: Type II collagen-specific IgG, IgG1 and IgG2a in sera by ELISA; assay type: in vivo, mouse; conditions: CIA mice, sera 4 weeks after injection, FIG. 1D
Experimental: as §2
The concentrations of murine anti-CII-specific IgG, IgG1, and IgG2a were measured by ELISA method by collecting sera from a mouse with arthritis 4 weeks after injecting the mouse with halofuginone (Bethyl Lab Co., Montgomery, Tex., USA). The group treated with a solution in which DMSO was diluted in saline was used as the control group.
The method of measuring the anti-CII-specific IgG, IgG1, and IgG2a antibodies is as follows. The CII was diluted in 0.05M sodium carbonate coating buffer (pH 9.6) at a concentration of 4 μg/mL, coated onto a 96-well microtiter plate, and placed at 4° C. for 18 hours. After removing the coated solution, for the inhibition of non-specific binding, TBS (pH 8.0) containing 1% bovine serum albumin (BSA: Amre-sco, solon, Ohio, USA) was added in an amount of 200 μL thereto and reacted at room temperature for 1 hour. For the measurement of anti-CII-specific IgG, IgG1, and IgG2a antibodies, the specimen was diluted at a 1:1,000 ratio, and in particular, TBS (pH 8.0) containing 1% BSA and 0.05% Tween 20 (Amresco) was used as the diluted solution. Then, the sera sample diluted in advance was added to each well in an amount of 50 μL and reacted at room temperature for 1 hour. […] The absorbance of the resultant was measured at 450 nm using the ELISA reader and the result of antibody measurement was indicated by absorbance itself.

osteoclasts = experiment: Cell cycle during osteoclast differentiation by 7-AAD and BrdU staining; assay type: cell-based, mouse; conditions: FIG. 5D
Description: as §1, with “<1-6>. Meanwhile, to examine the effect of halofuginone on cell cycle during the process of osteoclast differentiation, osteoclasts were subjected to 7-AAD and BrdU staining.” for “<1-6>.”

## O=C(C[C@H]1NCCC[C@@H]1O)Cn1cnc2cc(Br)c(Cl)cc2c1=O (racemic) [halofuginone]
[1]; FIG. 5C
  mRNA expression of Jpd2: inhibits
  mRNA expression of JunB: inhibits
  mRNA expression of c-Fos: inhibits
[1]; TRAP staining, FIG. 5A
  expression of factors associated with the differentiation of osteoclasts: inhibits
[2]; CIA DBA/1J mice, 100 and 500 μg/kg intraperitoneally at 3 day intervals, vs DMSO in saline control, FIG. 1A
  arthritis index score: decrease in the arthritis index score in a dose-dependent manner
[2]; CIA mice, 500 μg/kg
  arthritis lesion by the naked eye: no arthritis lesion at all
[3]
  concentration of IgG1 within the sera: significantly decreased
  concentration of IgG2a within the sera: significantly decreased
  concentration of IgG within the sera: significantly decreased
osteoclasts; 7-AAD and BrdU staining
  progress from G0/G1 into S phase: increased
osteoclasts
  expression of ccnd1 encoding Cyclin D1: increased
